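96-well plates; 48 h exposure; 5 concentrations. Endpoints by linear interpolation between flanking doses. Not reached: highest tested concentration assigned. Definition used: TGI = concentration required for complete inhibition of growth.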
How the values were obtained:
Assay in all cases: inhibition of tumour cell growth, NCI panel, 48 h
UO-31 renal = system: UO-31 renal
HL-60(TB) leukemia = system: HL-60(TB) leukemia
BT-549 breast = system: BT-549 breast
SF-295 CNS = system: SF-295 CNS
SW-620 colon = system: SW-620 colon
SK-MEL-28 melanoma = system: SK-MEL-28 melanoma
HS 578T breast = system: HS 578T breast
SK-OV-3 ovarian = system: SK-OV-3 ovarian
OVCAR-5 ovarian = system: OVCAR-5 ovarian
SF-268 CNS = system: SF-268 CNS
OVCAR-3 ovarian = system: OVCAR-3 ovarian
UACC-62 melanoma = system: UACC-62 melanoma
SNB-75 CNS = system: SNB-75 CNS
RPMI-8226 leukemia = system: RPMI-8226 leukemia
A498 renal = system: A498 renal
LOX IMVI melanoma = system: LOX IMVI melanoma
MDA-N = system: MDA-N
K-562 leukemia = system: K-562 leukemia
EKVX NSCLC = system: EKVX NSCLC
HCT-116 colon = system: HCT-116 colon
HCC-2998 colon = system: HCC-2998 colon
M14 melanoma = system: M14 melanoma
SNB-19 CNS = system: SNB-19 CNS
A549 NSCLC = system: A549 NSCLC
OVCAR-4 ovarian = system: OVCAR-4 ovarian
HCT-15 colon = system: HCT-15 colon
HT29 colon = system: HT29 colon
T-47D breast = system: T-47D breast
NCI-H23 lung = system: NCI-H23 lung
NCI-H460 lung = system: NCI-H460 lung
NCI/ADR-RES ovarian = system: NCI/ADR-RES ovarian
SK-MEL-5 melanoma = system: SK-MEL-5 melanoma
UACC-257 melanoma = system: UACC-257 melanoma
HOP-62 NSCLC = system: HOP-62 NSCLC
SF-539 CNS = system: SF-539 CNS
CCRF-CEM leukemia = system: CCRF-CEM leukemia
PC-3 prostate = system: PC-3 prostate
SK-MEL-2 melanoma = system: SK-MEL-2 melanoma
MOLT-4 leukemia = system: MOLT-4 leukemia
KM12 colon = system: KM12 colon
MCF7 breast = system: MCF7 breast
MDA-MB-435 = system: MDA-MB-435
ACHN renal = system: ACHN renal
SR leukemia = system: SR leukemia
RXF 393 renal = system: RXF 393 renal
OVCAR-8 ovarian = system: OVCAR-8 ovarian
SN12C renal = system: SN12C renal
DU-145 prostate = system: DU-145 prostate
NCI-H226 lung = system: NCI-H226 lung
IGROV1 ovarian = system: IGROV1 ovarian
CAKI-1 renal = system: CAKI-1 renal
MALME-3M melanoma = system: MALME-3M melanoma
COLO 205 colon = system: COLO 205 colon
NCI-H522 lung = system: NCI-H522 lung
HOP-92 NSCLC = system: HOP-92 NSCLC
786-0 renal = system: 786-0 renal

COc1ccc(C)cc1Nc1nnc(-c2ccc(N)cc2)s1
TGI (UO-31 renal): > 100 µM
TGI (HL-60(TB) leukemia): > 100 µM
TGI (BT-549 breast): > 100 µM
TGI (SF-295 CNS): > 100 µM
TGI (SW-620 colon): > 100 µM
TGI (SK-MEL-28 melanoma): > 100 µM
TGI (HS 578T breast): > 100 µM
TGI (SK-OV-3 ovarian): > 100 µM
TGI (OVCAR-5 ovarian): > 100 µM
TGI (SF-268 CNS): > 100 µM
TGI (OVCAR-3 ovarian): > 100 µM
TGI (UACC-62 melanoma): > 100 µM
TGI (SNB-75 CNS): > 100 µM
TGI (RPMI-8226 leukemia): 98.4 µM
TGI (A498 renal): > 100 µM
TGI (LOX IMVI melanoma): > 100 µM
TGI (MDA-N): > 100 µM
TGI (K-562 leukemia): > 100 µM
TGI (EKVX NSCLC): > 100 µM
TGI (HCT-116 colon): > 100 µM
TGI (HCC-2998 colon): > 100 µM
TGI (M14 melanoma): > 100 µM
TGI (SNB-19 CNS): > 100 µM
TGI (A549 NSCLC): > 100 µM
TGI (OVCAR-4 ovarian): > 100 µM
TGI (HCT-15 colon): > 100 µM
TGI (HT29 colon): > 100 µM
TGI (T-47D breast): > 100 µM
TGI (NCI-H23 lung): > 100 µM
TGI (NCI-H460 lung): > 100 µM
TGI (NCI/ADR-RES ovarian): > 100 µM
TGI (SK-MEL-5 melanoma): > 100 µM
TGI (UACC-257 melanoma): > 100 µM
TGI (HOP-62 NSCLC): > 100 µM
TGI (SF-539 CNS): > 100 µM
TGI (CCRF-CEM leukemia): > 100 µM
TGI (PC-3 prostate): > 100 µM
TGI (SK-MEL-2 melanoma): > 100 µM
TGI (MOLT-4 leukemia): > 100 µM
TGI (KM12 colon): > 100 µM
TGI (MCF7 breast): > 100 µM
TGI (MDA-MB-435): > 100 µM
TGI (ACHN renal): > 100 µM
TGI (SR leukemia): > 100 µM
TGI (RXF 393 renal): > 100 µM
TGI (OVCAR-8 ovarian): > 100 µM
TGI (SN12C renal): > 100 µM
TGI (DU-145 prostate): > 100 µM
TGI (NCI-H226 lung): > 100 µM
TGI (IGROV1 ovarian): > 100 µM
TGI (CAKI-1 renal): > 100 µM
TGI (MALME-3M melanoma): > 100 µM
TGI (COLO 205 colon): > 100 µM
TGI (NCI-H522 lung): > 100 µM
TGI (HOP-92 NSCLC): > 100 µM
TGI (786-0 renal): > 100 µM

— PubChem BioAssay (NCI)
